Results published in patent publication US6737383B1, “Herbicidal oxadiazolidines” (priority 1999, dated 2004).

Assays:
bedstraw = test: Test B pre/postemergence bedstraw; format: in vivo, Galium aparine
Procedure, shortened: (§1)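 Response is a visual 0-to-10 score relative to untreated plants, where 0 means no effect and 10 means complete control, taken twelve to sixteen days after application. Treatments went onto soil at planting and onto foliage of 1- to 4-leaf plants, using a surfactant-containing non-phytotoxic solvent.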

blackgrass = test: Test B pre/postemergence blackgrass; format: in vivo, Alopecurus myosuroides
Procedure, shortened: as §1

surinam grass = test: Test B pre/postemergence surinam grass; format: in vivo, Brachiaria decumbens
Procedure, shortened: as §1

cocklebur = test: Test B pre/postemergence cocklebur; format: in vivo, Xanthium strumarium
Procedure, shortened: as §1

corn = test: Test B pre/postemergence corn; format: in vivo, Zea mays
Procedure, shortened: as §1

crabgrass = test: Test B pre/postemergence crabgrass; format: in vivo, Digitaria sanguinalis
Procedure, shortened: as §1

giant foxtail = test: Test B pre/postemergence giant foxtail; format: in vivo, Setaria faberii
Procedure, shortened: as §1

morningglory = test: Test B pre/postemergence morningglory; format: in vivo, Ipomoea hederacea
Procedure, shortened: as §1

pigweed = test: Test B pre/postemergence pigweed; format: in vivo, Amaranthus retroflexus
Procedure, shortened: as §1

rape = test: Test B pre/postemergence rape; format: in vivo, Brassica napus
Procedure, shortened: as §1

soybean = test: Test B pre/postemergence soybean; format: in vivo, Glycine max
Procedure, shortened: as §1

sugar beet = test: Test B pre/postemergence sugar beet; format: in vivo, Beta vulgaris
Procedure, shortened: as §1

velvetleaf = test: Test B pre/postemergence velvetleaf; format: in vivo, Abutilon theophrasti
Procedure, shortened: as §1

wheat = test: Test B pre/postemergence wheat; format: in vivo, Triticum aestivum
Procedure, shortened: as §1

wild oat = test: Test B pre/postemergence wild oat; format: in vivo, Avena fatua
Procedure, shortened: as §1

purple nutsedge = test: Test B pre/postemergence purple nutsedge; format: in vivo, Cyperus rotundus
Procedure, shortened: as §1

[1] = Postemergence, Rate 62 g/ha, scale 0 to 10, 0 is no effect, 10 is complete control
[2] = Postemergence, Rate 125 g/ha, scale of 0 to 10 where 0 is no effect and 10 is complete control
[3] = Postemergence, Rate 500 g/ha, scale 0 (no effect) to 10 (complete control)
[4] = Preemergence, Rate 250 g/ha, scale 0 (no effect) to 10 (complete control)
[5] = Rate 62 g/ha, Preemergence, scale 0 to 10
[6] = Rate 125 g/ha, Preemergence, scale 0 to 10 (0 no effect, 10 complete control)
[7] = Rate 250 g/ha, Postemergence, scale 0 to 10, 0 is no effect, 10 is complete control
[8] = Rate 500 g/ha, Preemergence, scale 0 to 10 (0 no effect, 10 complete control)

`COC1CCC(Cn2c(=O)on(C(=O)N(c3ccc(F)cc3)C(C)C)c2=O)=NO1` (centres unmarked) [Compound 766] was tested, and the “Plant response rating, Bedstraw” value (bedstraw; [1]) was 0, the “Bedstraw plant response rating” value (bedstraw; [2]) was 0 and the “Bedstraw plant response rating” value (bedstraw; [3]) was 3. For the same molecule, the “Bedstraw plant response rating” value (bedstraw; [4]) was 10, the “Bedstraw plant response rating” value (bedstraw; [5]) was 4 and the “Bedstraw plant response rating” value (bedstraw; [6]) was 9. For the same molecule, the “Bedstraw plant response rating” value (bedstraw; [7]) was 0, the “Bedstraw plant response rating” value (bedstraw; [8]) was 9 and the “Plant response rating, Blackgrass” value (blackgrass; [1]) was 0. For the same molecule, the “Blackgrass plant response rating” value (blackgrass; [2]) was 5, the “Blackgrass plant response rating” value (blackgrass; [4]) was 8 and the “Blackgrass plant response rating” value (blackgrass; [5]) was 0. For the same molecule, the “Blackgrass plant response rating” value (blackgrass; [6]) was 7, the “Blackgrass plant response rating” value (blackgrass; [7]) was 6 and the “Blackgrass plant response rating” value (blackgrass; [8]) was 9. The “Plant response rating, B. signalgrass” value (surinam grass; [1]) was 0, the “B. signalgrass plant response rating” value (surinam grass; [2]) was 2 and the “B. signalgrass plant response rating” value (surinam grass; [4]) was 10. For the same molecule, the “B. signalgrass plant response rating” value (surinam grass; Rate 62 g/ha, Preemergence, scale 0 (no effect) to 10 (complete control)) was 6, the “B. signalgrass plant response rating” value (surinam grass; [6]) was 8 and the “B. signalgrass plant response rating” value (surinam grass; [7]) was 8. The “B. signalgrass plant response rating” value (surinam grass; [8]) was 10, the “Plant response rating, Cocklebur” value (cocklebur; [1]) was 0 and the “Cocklebur plant response rating” value (cocklebur; [2]) was 0. For the same molecule, the “Cocklebur plant response rating” value (cocklebur; [3]) was 6, the “Cocklebur plant response rating” value (cocklebur; [5]) was 0 and the “Cocklebur plant response rating” value (cocklebur; [6]) was 0. For the same molecule, the “Cocklebur plant response rating” value (cocklebur; [7]) was 2, the “Cocklebur plant response rating” value (cocklebur; [8]) was 0 and the “Plant response rating, Corn” value (corn; [1]) was 0. For the same molecule, the “Corn plant response rating” value (corn; [2]) was 0, the “Corn plant response rating” value (corn; [3]) was 4 and the “Corn plant response rating” value (corn; [4]) was 0. The “Corn plant response rating” value (corn; [5]) was 0, the “Corn plant response rating” value (corn; [6]) was 0 and the “Corn plant response rating” value (corn; [7]) was 4. The “Corn plant response rating” value (corn; [8]) was 3, the “Plant response rating, Crabgrass” value (crabgrass; [1]) was 2 and the “Crabgrass plant response rating” value (crabgrass; [2]) was 6. The “Crabgrass plant response rating” value (crabgrass; [3]) was 9, the “Crabgrass plant response rating” value (crabgrass; [4]) was 10 and the “Crabgrass plant response rating” value (crabgrass; [5]) was 9. The “Crabgrass plant response rating” value (crabgrass; [6]) was 9, the “Crabgrass plant response rating” value (crabgrass; [7]) was 6 and the “Crabgrass plant response rating” value (crabgrass; [8]) was 10. The “Plant response rating, Giant foxtail” value (giant foxtail; [1]) was 0, the “Giant foxtail plant response rating” value (giant foxtail; [2]) was 8 and the “Giant foxtail plant response rating” value (giant foxtail; [3]) was 9. For the same molecule, the “Giant foxtail plant response rating” value (giant foxtail; [4]) was 9, the “Giant foxtail plant response rating” value (giant foxtail; [5]) was 9 and the “Giant foxtail plant response rating” value (giant foxtail; [6]) was 9. For the same molecule, the “Giant foxtail plant response rating” value (giant foxtail; [7]) was 9, the “Giant foxtail plant response rating” value (giant foxtail; [8]) was 10 and the “Plant response rating, Morningglory” value (morningglory; [1]) was 2. For the same molecule, the “Morningglory plant response rating” value (morningglory; [2]) was 2, the “Morningglory plant response rating” value (morningglory; [3]) was 2 and the “Morningglory plant response rating” value (morningglory; [5]) was 2. For the same molecule, the “Morningglory plant response rating” value (morningglory; [6]) was 3, the “Morningglory plant response rating” value (morningglory; [7]) was 2 and the “Morningglory plant response rating” value (morningglory; [8]) was 3. The “Plant response rating, Redroot pigweed” value (pigweed; [1]) was 5, the “Redroot pigweed plant response rating” value (pigweed; [2]) was 6 and the “Redroot pigweed plant response rating” value (pigweed; [3]) was 8. For the same molecule, the “Redroot pigweed plant response rating” value (pigweed; [5]) was 9, the “Redroot pigweed plant response rating” value (pigweed; [6]) was 10 and the “Redroot pigweed plant response rating” value (pigweed; [7]) was 6. For the same molecule, the “Redroot pigweed plant response rating” value (pigweed; [8]) was 10, the “Plant response rating, Rape” value (rape; [1]) was 0 and the “Rape plant response rating” value (rape; [2]) was 0. For the same molecule, the “Rape plant response rating” value (rape; [3]) was 0, the “Rape plant response rating” value (rape; [5]) was 2 and the “Rape plant response rating” value (rape; [6]) was 5. The “Rape plant response rating” value (rape; [7]) was 0, the “Rape plant response rating” value (rape; [8]) was 9 and the “Plant response rating, Soybean” value (soybean; [1]) was 2. For the same molecule, the “Soybean plant response rating” value (soybean; [3]) was 4, the “Soybean plant response rating” value (soybean; [5]) was 0 and the “Soybean plant response rating” value (soybean; [6]) was 0. The “Soybean plant response rating” value (soybean; [7]) was 4, the “Soybean plant response rating” value (soybean; [8]) was 0 and the “Plant response rating, Sugarbeets” value (sugar beet; [1]) was 0. The “Sugarbeets plant response rating” value (sugar beet; [3]) was 2, the “Sugarbeets plant response rating” value (sugar beet; [5]) was 2 and the “Sugarbeets plant response rating” value (sugar beet; [6]) was 6. For the same molecule, the “Sugarbeets plant response rating” value (sugar beet; [7]) was 2, the “Sugarbeets plant response rating” value (sugar beet; [8]) was 9 and the “Plant response rating, Velvetleaf” value (velvetleaf; [1]) was 0. The “Velvetleaf plant response rating” value (velvetleaf; [3]) was 5, the “Velvetleaf plant response rating” value (velvetleaf; [5]) was 5 and the “Velvetleaf plant response rating” value (velvetleaf; [6]) was 5. For the same molecule, the “Velvetleaf plant response rating” value (velvetleaf; [7]) was 3, the “Velvetleaf plant response rating” value (velvetleaf; [8]) was 10 and the “Plant response rating, Wheat” value (wheat; [1]) was 0. The “Wheat plant response rating” value (wheat; [3]) was 3, the “Wheat plant response rating” value (wheat; [5]) was 0 and the “Wheat plant response rating” value (wheat; [6]) was 4. For the same molecule, the “Wheat plant response rating” value (wheat; [7]) was 3, the “Wheat plant response rating” value (wheat; [8]) was 10 and the “Plant response rating, Wild oats” value (wild oat; [1]) was 0. For the same molecule, the “Wild oats plant response rating” value (wild oat; [3]) was 2, the “Wild oats plant response rating” value (wild oat; [5]) was 3 and the “Wild oats plant response rating” value (wild oat; [6]) was 7. The “Wild oats plant response rating” value (wild oat; [7]) was 2, the “Wild oats plant response rating” value (wild oat; [8]) was 10 and the “Plant response rating, Nutsedge” value (purple nutsedge; [1]) was 0. For the same molecule, the “Nutsedge plant response rating” value (purple nutsedge; [2]) was 3, the “Nutsedge plant response rating” value (purple nutsedge; [3]) was 5 and the “Nutsedge plant response rating” value (purple nutsedge; [5]) was 0. The “Nutsedge plant response rating” value (purple nutsedge; [6]) was 0 and the “Nutsedge plant response rating” value (purple nutsedge; [8]) was 4.
